Results taken from patent US20250332112A1, “IONIZABLE CATIONIC LIPIDS FOR LIPID NANOPARTICLES” (GENEVANT SCIENCES GMBH, priority 2022, published 2025).

Legend:
[1] = Particle characteristics of LNPs containing EGFP mRNA and novel ionizable lipids; type: physicochemical; conditions: EGFP mRNA LNP 1.6:54.6:32.8:10.9
Experimental: The lipid solution contains 4 components: a PEG-conjugated lipid, an ionizable lipid, cholesterol, and a phospholipid (e.g., DSPC). Lipid stocks were prepared using the lipid identities and molar ratios as described, to achieve a total concentration of ˜7 mg/mL in 100% ethanol. […] Equal volumes of the lipid and nucleic acid solutions were blended at a flow rate of 400 mL/min through a T-connector, and diluted with ˜4 volumes of PBS, pH 7.4. Formulations were placed in Slide-A-Lyzer dialysis units (MWCO 10,000) and dialyzed overnight against 10 mM Tris, 500 mM NaCl, pH 8 buffer. Following dialysis, the formulations were concentrated to ˜0.6 mg/mL using VivaSpin concentrator units (MWCO 100,000) and dialyzed overnight against 5 mM Tris, 10% sucrose, pH 8 buffer. Formulations were filtered through a 0.2 μm syringe filter (PES membrane). Nucleic acid concentration was determined by the RiboGreen assay. Particle size and polydispersity were determined using a Malvern Nano Series Zetasizer.
LNP formulations containing novel ionizable lipids all produced stable particles with high encapsulation efficiency (Tables 20-23).

[2] = Parent ionizable lipid remaining in liver at 24 h after EGFP mRNA LNP (LC-MS); type: in vivo; conditions: 24 h after IV 0.5 mg/kg EGFP mRNA LNP, female BALB/c mice (n = 4)
Experimental: (§1) Liver tissues were treated with PBS and homogenized with a FastPrep machine, 3 cycles of 5 m/s×15 s. Homogenates from the PBS-treated control animals was pooled and used for standard curve preparation. Samples were extracted into a deep well plate with 250 μL of an internal suitability standard. Plates were centrifuged for 15 min at 4° C. and 2000 rpm. Analysis was performed using an Agilent 6520 QTOF coupled to an Agilent 1290 UHPLC, using reverse-phase LC separation. Quantitation of the ionizable lipid was by MS/MS against a calibration curve spiked into appropriately matched blank matrix. Calibration used a similar class of synthetic lipid as internal standard.
At 24 h post-dose, some treatment groups reported lower levels of novel ionizable lipid in mouse liver compared to the benchmark (Tables 28-31).

[3] = tested on: EGFP expression in the liver; test: EGFP expression in liver after intravenous EGFP mRNA LNP (ELISA); conditions: 0.5 mg/kg IV, 24 h post-IV administration, BALB/c mice (n = 4)
[4] = Particle characteristics of LNPs containing luciferase mRNA and novel ionizable lipids; type: physicochemical; conditions: luciferase mRNA LNP 1.6:54.6:32.8:10.9
Procedure, shortened: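 LNPs made from PEG-lipid, ionizable lipid, cholesterol and phospholipid in ethanol, T-mixed with luciferase mRNA in 100 mM acetate pH 5. Products were dialysed, concentrated, and dialysed into 5 mM Tris, 10% sucrose, pH 8, then 0.2 μm filtered. mRNA was measured by RiboGreen, and size and polydispersity by dynamic light scattering on a Zetasizer.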

[5] = tested on: luciferase activity in the liver; test: Luciferase activity in liver after intravenous luciferase mRNA LNP; type: in vivo; conditions: 0.5 mg/kg IV, 6 h post-IV administration, BALB/c mice (n = 4)
[6] = Parent ionizable lipid remaining in liver at 6 h after luciferase mRNA LNP (LC-MS); type: in vivo; conditions: 6 h after IV 0.5 mg/kg Luciferase mRNA LNP, female BALB/c mice (n = 4)
Experimental: as §1
At 6 h post-dose, some treatment groups reported lower levels of novel ionizable lipid in mouse liver compared to the benchmark (Tables 16-18).

| Structure (SMILES) | Final Product % EE ([1]; Table 22) [%] | Final Product PDI ([1]; Table 22) | Final Product Z-avg ([1]; Table 22) [nm] | Parent ionizable lipid remaining in liver, Average ([2]; Table 30) [nmol/g liver] | EGFP ([3]; Table 26) [pg/g liver] | Final Product % EE ([4]; Table 7) [%] | Final Product PDI ([4]; Table 7) | Final Product Z-avg ([4]; Table 7) [nm] | Luc Activity ([5]; Table 14) [pg/g liver] | Parent ionizable lipid remaining in liver, Average ([6]; Table 18) [nmol/g liver] | also measured |
| --- | --- | --- | --- | --- | --- | --- | --- | --- | --- | --- | --- |
| CCCCCCCCCCC(CCCCCCCC(=O)OCC(CCCCCC)CCCCCCCC)N(CCCCCCCCCC)C(=O)CCN(C)C (centres unmarked) [Compound 119, 2-Hexyldecyl 9-(N-decyl-3-(dimethylamino)propanamido)nonadecanoate] | 97 | 0.09 | 73 | 25.25 | 1.60E+07 | – | – | – | – | – | – |
| CCCCCCCCCCON(C(=O)CCCN(C)C)C(CCCCCCCCCC)CCCCCCC(F)(F)C(=O)OC(CCCCCCC)CCCCCCC (centres unmarked) [Compound 106, Pentadecan-8-yl 9-(N-(decyloxy)-4-(dimethylamino)butanamido)-2,2-difluoro-nonadecanoate] | 95 | 0.13 | 73 | 56.97 | 2.45E+07 | – | – | – | – | – | – |
| CCCCCCCCCCN(C(=O)CCCN(C)C)C(CCCCCCCCC)CCCCC(F)(F)C(=O)OCC(CCCCCC)CCCCCCCC (centres unmarked) [Compound 102, 2-Hexyldecyl 7-(N-decyl-4-(dimethylamino)butanamido)-2,2-difluorohexadecanoate] | – | – | – | – | – | – | – | – | – | – | Final Product % EE ([1]; Table 21): 98%; Final Product PDI ([1]; Table 21): 0.09; Final Product Z-avg ([1]; Table 21): 67 nm; Parent ionizable lipid remaining in liver, Average ([2]; Table 29): 5.72 nmol/g liver; EGFP ([3]; Table 25): 1.94E+05 pg/g liver |
| CCCCCCCCCCN(C(=O)CCCN(C)C)C(CCCCCCCCC)CCCCC(F)(F)C(=O)OC(CCCCCCCC)CCCCCCCC (centres unmarked) [Compound 110, Heptadecan-9-yl 7-(N-decyl-4-(dimethylamino)butanamido)-2,2-difluorohexadecanoate] | 98 | 0.11 | 67 | 33.07 | 4.01E+07 | – | – | – | – | – | – |
| CCCCCCCCCCC(CCCCCCC(=O)OC(CCCCCCC)CCCCCCC)N(CCCCCCC(F)(F)C(=O)OC(CCCCCCC)CCCCCCC)C(=O)CCCN(C)C (centres unmarked) [Compound 117, Pentadecan-8-yl 8-(N-(7,7-difluoro-8-oxo-8-(pentadecan-8-yloxy)octyl)-4-(dimethylamino)butanamido)octadecanoate] | 99 | 0.06 | 80 | 49.53 | 3.15E+07 | – | – | – | – | – | – |
| CCCCCCCCCCN(C(=O)CCCN(C)C)C(CCCCCCCCC)CCCCCCC(F)(F)C(=O)OC(CCCCCC)CCCCCC (centres unmarked) [Compound 92, Tridecan-7-yl 9-(N-decyl-4-(dimethylamino)butanamido)-2,2-difluorooctadecanoate] | – | – | – | – | – | – | – | – | – | – | Final Product % EE ([1]; Table 21): 99%; Final Product PDI ([1]; Table 21): 0.09; Final Product Z-avg ([1]; Table 21): 71 nm; Parent ionizable lipid remaining in liver, Average ([2]; Table 29): 8.83 nmol/g liver; EGFP ([3]; Table 25): 6.34E+05 pg/g liver |
| CCCCCCCCCCC(CCCCCCC(=O)OCCC(CCCCCC)CCCCCC)N(CCCCCCCCCC)C(=O)OCCCN(C)C (centres unmarked) [Compound 105, 3-hexylnonyl 8-(decyl((3-(dimethylamino)propoxy)carbonyl)-amino) octadecanoate] | 97 | 0.08 | 82 | 18.96 | 1.86E+07 | – | – | – | – | – | – |
| CCCCCCCCCCN(C(=O)CCCN(C)C)C(CCCCCCCCC)CCCCCCC(F)C(=O)OCCC(CCCCCC)CCCCCC (centres unmarked) [Compound 76, 3-Hexylnonyl 9-[N-decyl-4-(dimethylamino)butanamido]-2-fluorooctadecanoate] | – | – | – | – | – | 98 | 0.07 | 69 | 2.09E+07 | 17.86 | – |
| CCCCCCCCCCCCCOC(=O)CCCCC(CCCCCCCCCC)N(CCN(C)C)C(=O)CCCCCCC(=O)OCC(CCCC)CCCCCC (centres unmarked) [Compound 24, Tridecyl 6-(8-((2-butyloctyl)oxy)-N-(2-(dimethylamino)ethyl)-8-oxooctanamido)-hexadecanoate] | – | – | – | – | – | – | – | – | – | – | Final Product % EE ([4]; Table 3): 96%; Final Product PDI ([4]; Table 3): 0.08; Final Product Z-avg ([4]; Table 3): 72 nm; Luc Activity ([5]; Table 10): 3.98E+06 pg/g liver; Parent ionizable lipid remaining in liver, Average ([6]; Table 16): 35.16 nmol/g liver |
| CCCCC/C=C\CCCC(CCC/C=C\CCCCC)NNC(=O)CC(CCCCCCCCC)N(CCCN(C)C)C(=O)CCCCCCCCC (centres unmarked) [Compound 59, N-(3-(Dimethylamino)propyl)-N-(1-(2-((6Z,15Z)-henicosa-6,15-dien-11-yl)hydrazineyl)-1-oxododecan-3-yl)decanamide] | – | – | – | – | – | – | – | – | – | – | Final Product % EE ([4]; Table 3): 99%; Final Product PDI ([4]; Table 3): 0.07; Final Product Z-avg ([4]; Table 3): 82 nm; Luc Activity ([5]; Table 10): 1.12E+06 pg/g liver; Parent ionizable lipid remaining in liver, Average ([6]; Table 16): 22.67 nmol/g liver |
| CCCCCCCCCC(CCCCCCC(F)C(=O)OCCC(CCCCC)CCCCC)N(CCCCCCCC(=O)OCCC(CCCCC)CCCCC)C(=O)CCCN(C)C (centres unmarked) [Compound 88, 3-pentyloctyl 9-[4-(dimethylamino)-N-{8-oxo-8-[(3-pentyloctyl)oxy]octyl}butanamido]-2-fluorooctadecanoate] | – | – | – | – | – | 99 | 0.04 | 72 | 1.64E+07 | 7.88 | – |
| CCCCCCCCCCN(C(=O)CCCN(C)C)C(CCCCCCCCC)CCCCCCC(F)(F)C(=O)OCCC(CCCCC)CCCCC (centres unmarked) [Compound 20, 3-Pentyloctyl 9-(N-decyl-4-(dimethylamino)butanamido)-2,2-difluorooctadecanoate] | – | – | – | – | – | 98 | 0.08 | 72 | 2.71E+07 | 1.82 | – |
| CCCCCCCCCCN(C(=O)CCCN(C)C)C(CCCCCCCCC)CCCCCCC(F)C(=O)OCC(CCCCCC)CCCCCCCC (centres unmarked) [Compound 77, 2-Hexyldecyl 9-(N-decyl-4-(dimethylamino)butanamido)-2-fluorooctadecanoate] | – | – | – | – | – | 99 | 0.09 | 63 | 3.26E+07 | 30.63 | – |
| CCCCCCCCCCC(CCCCCC(=O)OCC(CCCCCC)CCCCCCCC)N(CCCCCCCCCC)C(=O)CCCCN(C)C (centres unmarked) [Compound 3, 2-Hexyldecyl 7-(N-decyl-5-(dimethylamino)pentanamido)heptadecanoate] | – | – | – | – | – | – | – | – | – | – | Final Product % EE ([4]; Table 3): 99%; Final Product PDI ([4]; Table 3): 0.05; Final Product Z-avg ([4]; Table 3): 91 nm; Luc Activity ([5]; Table 10): 5.94E+07 pg/g liver; Parent ionizable lipid remaining in liver, Average ([6]; Table 16): 7.72 nmol/g liver |
| CCCCCCCCCCC(CCCCCCCC(=O)OCC(CCCCCC)CCCCCCCC)N(CCCCCCCC(=O)OCC(CCCCCC)CCCCCCCC)C(=O)CCCCN(C)C (centres unmarked) [Compound 74, 2-Hexyldecyl 9-(5-(dimethylamino)-N-(8-((2-hexyldecyl)oxy)-8-oxooctyl)-pentanamido)-nonadecanoate] | – | – | – | – | – | 99 | 0.05 | 89 | 6.77E+07 | 17.92 | – |
| CCCCCCCCCC(CCCCCCC(F)C(=O)OCCC(CCCCC)CCCCC)N(CCCCCC(F)C(=O)OCCC(CCCCC)CCCCC)C(=O)CCCN(C)C (centres unmarked) [Compound 34, 3-pentyloctyl 9-[4-(dimethylamino)-N-{6-fluoro-7-oxo-7-[(3-pentyloctyl)oxy]heptyl}butanamido]-2-fluorooctadecanoate] | – | – | – | – | – | 99 | 0.10 | 70 | 1.91E+06 | 1.78 | – |
